From BindingDB's records for PubMed 1930610 (Eli Lilly, 1991)
Where a name gives a salt, the structure may show the parent alone.

Tests used:
[1] = biological target: 5-hydroxytryptamine 1D receptor (Bos taurus, UniProt Q8MI13)
[2] = biological target: 5-hydroxytryptamine receptor 1B (Rattus norvegicus, UniProt P28564)
[3] = biological target: Beta-arrestin-2 (Bos taurus, UniProt P32120)
[4] = biological target: T1, 5-hydroxytryptamine receptor 3A (Rattus norvegicus, UniProt P35563)
T1 sequence (P35563 whole entry): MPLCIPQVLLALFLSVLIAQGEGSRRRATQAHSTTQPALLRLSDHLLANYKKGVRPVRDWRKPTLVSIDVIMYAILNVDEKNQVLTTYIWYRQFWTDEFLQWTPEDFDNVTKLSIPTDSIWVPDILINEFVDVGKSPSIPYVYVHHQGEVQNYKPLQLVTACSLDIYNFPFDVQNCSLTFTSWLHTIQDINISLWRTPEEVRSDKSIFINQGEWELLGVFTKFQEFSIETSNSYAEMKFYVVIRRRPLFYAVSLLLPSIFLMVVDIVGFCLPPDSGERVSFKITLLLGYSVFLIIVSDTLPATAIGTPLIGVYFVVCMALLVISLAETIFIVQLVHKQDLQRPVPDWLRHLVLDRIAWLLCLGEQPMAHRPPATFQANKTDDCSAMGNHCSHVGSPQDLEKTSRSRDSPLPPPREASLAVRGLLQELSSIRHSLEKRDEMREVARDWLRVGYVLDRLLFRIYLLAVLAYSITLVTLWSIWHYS

[5] = biological target: 5-hydroxytryptamine receptor 2A (Rattus norvegicus, UniProt P14842)
[6] = biological target: T2, 5-hydroxytryptamine receptor 1A (Rattus norvegicus, UniProt P19327)
T2 sequence (P19327 whole entry): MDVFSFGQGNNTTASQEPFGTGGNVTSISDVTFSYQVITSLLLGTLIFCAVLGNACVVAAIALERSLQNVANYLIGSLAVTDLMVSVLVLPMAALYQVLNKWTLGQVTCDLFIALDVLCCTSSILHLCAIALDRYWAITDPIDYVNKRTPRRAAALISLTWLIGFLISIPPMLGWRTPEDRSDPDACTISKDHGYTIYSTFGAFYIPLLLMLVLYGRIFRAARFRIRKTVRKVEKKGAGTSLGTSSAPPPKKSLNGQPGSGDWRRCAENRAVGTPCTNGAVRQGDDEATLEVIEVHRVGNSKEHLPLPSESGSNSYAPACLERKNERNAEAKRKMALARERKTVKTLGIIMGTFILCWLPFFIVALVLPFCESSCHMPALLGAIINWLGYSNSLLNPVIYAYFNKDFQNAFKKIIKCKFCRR

Sequence of Beta-arrestin-2 (P32120 whole entry): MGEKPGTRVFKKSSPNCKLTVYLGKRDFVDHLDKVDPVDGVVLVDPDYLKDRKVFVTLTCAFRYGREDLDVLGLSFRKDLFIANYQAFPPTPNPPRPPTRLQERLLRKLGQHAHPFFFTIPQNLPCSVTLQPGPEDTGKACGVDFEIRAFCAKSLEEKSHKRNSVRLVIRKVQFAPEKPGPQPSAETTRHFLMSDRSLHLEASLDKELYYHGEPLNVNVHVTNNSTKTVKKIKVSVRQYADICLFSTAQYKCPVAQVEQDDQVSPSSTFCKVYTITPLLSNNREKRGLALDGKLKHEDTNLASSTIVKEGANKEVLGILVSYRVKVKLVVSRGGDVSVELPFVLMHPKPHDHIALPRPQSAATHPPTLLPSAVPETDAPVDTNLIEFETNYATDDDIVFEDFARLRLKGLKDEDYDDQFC
Sequence of 5-hydroxytryptamine receptor 1B (P28564 whole entry): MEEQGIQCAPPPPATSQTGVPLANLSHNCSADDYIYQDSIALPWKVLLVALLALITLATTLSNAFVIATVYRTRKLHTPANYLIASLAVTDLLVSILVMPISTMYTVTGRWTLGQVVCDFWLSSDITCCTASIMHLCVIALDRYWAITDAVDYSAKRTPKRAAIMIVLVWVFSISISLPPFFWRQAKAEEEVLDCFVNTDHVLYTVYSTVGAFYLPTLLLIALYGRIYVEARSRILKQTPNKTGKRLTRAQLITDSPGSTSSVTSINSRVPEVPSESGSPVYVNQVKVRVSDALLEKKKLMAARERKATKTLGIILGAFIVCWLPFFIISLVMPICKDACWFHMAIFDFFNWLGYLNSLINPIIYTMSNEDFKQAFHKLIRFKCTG
Sequence of 5-hydroxytryptamine 1D receptor (Q8MI13 whole entry): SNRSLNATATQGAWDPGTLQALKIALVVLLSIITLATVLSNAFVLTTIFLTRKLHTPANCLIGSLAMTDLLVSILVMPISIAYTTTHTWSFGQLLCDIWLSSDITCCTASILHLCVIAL
Sequence of 5-hydroxytryptamine receptor 2A (P14842 whole entry): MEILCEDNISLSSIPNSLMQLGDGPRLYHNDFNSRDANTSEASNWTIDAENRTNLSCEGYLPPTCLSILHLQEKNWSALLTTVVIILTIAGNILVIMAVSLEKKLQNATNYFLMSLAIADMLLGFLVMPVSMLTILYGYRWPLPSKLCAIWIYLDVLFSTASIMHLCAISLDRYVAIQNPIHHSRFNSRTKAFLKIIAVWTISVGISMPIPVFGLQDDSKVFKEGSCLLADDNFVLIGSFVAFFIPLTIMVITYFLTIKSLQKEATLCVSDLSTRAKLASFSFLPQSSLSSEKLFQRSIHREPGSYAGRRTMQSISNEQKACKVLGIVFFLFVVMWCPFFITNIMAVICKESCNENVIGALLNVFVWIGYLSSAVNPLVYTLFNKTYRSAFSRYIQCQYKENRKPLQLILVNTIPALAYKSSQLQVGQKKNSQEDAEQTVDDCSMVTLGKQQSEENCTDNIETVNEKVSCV

| Ki [2] [µM] | Ki [4] [µM] | Ki [5] [nM] | Ki [6] [µM] | Compound | Ki [1] [µM] | Ki [3] [µM] |
| --- | --- | --- | --- | --- | --- | --- |
| > 10 | > 10 |  |  | CN(C)CCCC1(c2ccc(F)cc2)OCc2cc(C#N)ccc21 (configuration not stated) [CITALOPRAM HYDROBROMIDE] | > 10 | 3.31 |
| 4.47 | 3.24 | 794 | 9.12 | c1ccc2c(CCC3CCNCC3)c[nH]c2c1 | 3.63 | 3.24 |
|  |  |  |  | CNCC[C@@H](Oc1ccc(C(F)(F)F)cc1)c1ccccc1 [Fluoxetine-R-(-)] | > 10 | 0.155 |
|  |  |  |  | CNCC[C@@H](Oc1ccc(C(F)(F)F)cc1)c1ccccc1 [(3R)-N-methyl-3-phenyl-3-[4-(trifluoromethyl)phenoxy]propan-1-amine] | 3.89 | 3.63 |
| 9.33 | > 10 | 407 | 3.16 | COc1ccc(OC[C@H]2CN(C)CC[C@@H]2c2ccccc2)cc1 [(3R,4S)-3-(4-Methoxy-phenoxymethyl)-1-methyl-4-phenyl-piperidine] | 3.72 | 1.91 |
|  |  |  |  | CNCC[C@@H](Oc1ccc(C(F)(F)F)cc1)c1ccccc1 [Prozac] | 4.27 | 0.269 |

| Compound | Ki [2] [µM] | Ki [4] [µM] | Ki [5] [nM] | Ki [6] [µM] | Ki [1] [µM] | Ki [3] [µM] |
| --- | --- | --- | --- | --- | --- | --- |
| Fc1ccc([C@@H]2CCNC[C@H]2COc2ccc3c(c2)OCO3)cc1 [PAROXETINE] | > 10 | 2.63 |  | > 10 | 4.9 | > 10 |
